Laboratory results: patent publication US5189169A (priority 1991, dated 1993)
Values joined by “and” are separate entries in the source; they are usually repeats but may differ in a detail not shown here. Equal values may be shown once.

Columns and labels:
Conditions in all cases: in vivo
[1] = test system: three broadleaf weeds (morning glory, mustard, velvetleaf); design: species or system Ipomoea purpurea, Brassica kaber, Abutilon theophrasti
yellow nutsedge [2] = test system: yellow nutsedge; design: species or system Cyperus esculentus
[3] = test system: three grassy weeds (wild oat, watergrass, foxtail); design: species or system Avena fatua, Echinochloa crusgalli, Setaria viridis
[4] = test system: three broadleaf weeds (morning glory, mustard, velvetleaf); design: species or system Ipomoea purpurea, Brassica kaber, Abutilon theophrasti; remark: listed apart in the source
[5] = test system: three grassy weeds (wild oat, watergrass, foxtail); design: species or system Avena fatua, Echinochloa crusgalli, Setaria viridis; remark: listed apart in the source
yellow nutsedge [6] = test system: yellow nutsedge; design: species or system Cyperus esculentus; remark: listed apart in the source

SMILES: CCCSP(=O)(N(CCC)CCC)N(CCOC)CCOC (stereo not drawn) [Compound 46]
- % Control, Pre-emergence, BL avg. [1]: 0%
- % Control, Post-emergence, NS (yellow nutsedge [2]): 0%
- % Control, Pre-emergence, GR avg. [3]: 0%
- % Control, Post-emergence, BL avg. [4]: 60% and 73%
- % Control, Post-emergence, GR avg. [5]: 30% and 47%
- % Control, Pre-emergence, NS (yellow nutsedge [6]): 0%

SMILES: CCCCN(CCCC)P(=O)(SCCC)N(C)c1ccc(Cl)cc1Cl (stereo not drawn) [Compound 23]
- % Control, Pre-emergence, BL avg. [1]: 0%
- % Control, Post-emergence, NS (yellow nutsedge [2]): 0%
- % Control, Pre-emergence, GR avg. [3]: 0%
- % Control, Post-emergence, BL avg. [4]: 50% and 43%
- % Control, Post-emergence, GR avg. [5]: 20% and 13%
- % Control, Pre-emergence, NS (yellow nutsedge [6]): 0%

SMILES: CCCSP(=O)(N(CCC)CCC)N(C)c1cccc(Cl)c1Cl (stereo not drawn) [Compound 35]
- % Control, Pre-emergence, BL avg. [1]: 0%
- % Control, Post-emergence, NS (yellow nutsedge [2]): 0%
- % Control, Pre-emergence, GR avg. [3]: 0%
- % Control, Post-emergence, BL avg. [4]: 20% and 33%
- % Control, Post-emergence, GR avg. [5]: 20% and 33%
- % Control, Pre-emergence, NS (yellow nutsedge [6]): 0%

SMILES: CCCSP(=O)(N(C)CC)N(CCC)CCC (stereo not drawn) [Compound 2]
- % Control, Pre-emergence, BL avg. [1]: 33%
- % Control, Post-emergence, NS (yellow nutsedge [2]): 20% and 10%
- % Control, Pre-emergence, GR avg. [3]: 33%
- % Control, Post-emergence, BL avg. [4]: 100%
- % Control, Post-emergence, GR avg. [5]: 80% and 57%
- % Control, Pre-emergence, NS (yellow nutsedge [6]): 0%

SMILES: CCCSP(=O)(N(CC)CCC(C)C)N(CC)CCC(C)C [Compound 51]
- % Control, Pre-emergence, BL avg. [1]: 8%
- % Control, Post-emergence, NS (yellow nutsedge [2]): 0%
- % Control, Pre-emergence, GR avg. [3]: 0%
- % Control, Post-emergence, BL avg. [4]: 95% and 100%
- % Control, Post-emergence, GR avg. [5]: 70% and 45%
- % Control, Pre-emergence, NS (yellow nutsedge [6]): 0%

SMILES: CCCSP(=O)(N(CC)CC(C)C)N(CC)CC(C)C [Compound 49]
- % Control, Pre-emergence, BL avg. [1]: 0%
- % Control, Post-emergence, NS (yellow nutsedge [2]): 0%
- % Control, Pre-emergence, GR avg. [3]: 0%
- % Control, Post-emergence, BL avg. [4]: 100%
- % Control, Post-emergence, GR avg. [5]: 80% and 47%
- % Control, Pre-emergence, NS (yellow nutsedge [6]): 0%

SMILES: CCCN(CCC)P(=O)(Sc1ccc(Cl)cc1)N(CCC)CCC [Compound 6]
- % Control, Pre-emergence, BL avg. [1]: 0%
- % Control, Post-emergence, NS (yellow nutsedge [2]): 0%
- % Control, Pre-emergence, GR avg. [3]: 0%
- % Control, Post-emergence, BL avg. [4]: 80% and 93%
- % Control, Post-emergence, GR avg. [5]: 70% and 53%
- % Control, Pre-emergence, NS (yellow nutsedge [6]): 0%

SMILES: CCCN(CCC)P(=O)(Sc1ccc(Cl)c(Cl)c1)N(CCC)CCC [Compound 9]
- % Control, Pre-emergence, BL avg. [1]: 0%
- % Control, Post-emergence, NS (yellow nutsedge [2]): 0%
- % Control, Pre-emergence, GR avg. [3]: 0%
- % Control, Post-emergence, BL avg. [4]: 50% and 83%
- % Control, Post-emergence, GR avg. [5]: 50% and 47%
- % Control, Pre-emergence, NS (yellow nutsedge [6]): 0%
